In patent US8754217B2, “Nalmefene hydrochloride dihydrate” (H. Lundbeck A/S, priority 2008, dated 2014):
Where a name gives a salt, the structure may show the parent alone.

Tests used:
[1] = Particle size by Laser Diffraction (Malvern Mastersizer S); assay type: physicochemical; details: Example 3 batch, mineral oil as dispergent
Description: In the present context, particle sizes are determined by Laser Diffraction using a Malvern Mastersizer S instrument as disclosed in details in the introductory part of the experimental section.
In the present context, particle sizes are determined by Laser Diffraction using a Malvern Mastersizer S instrument made up of a laser transmitter (LASER HELIUM-NEON-wavelength 632 nm), an optical system (300 F lens, range 0.5-900 μm), a measurement cell for suspension (beam length 2.4 mm) and a photodiode detector. The sample is analysed using mineral oil (CAS 8042-47) as dispergent.
The particle size of the so obtained Nalmefene hydrochloride dihydrate was determined by Laser Diffraction using a Malvern Mastersizer S instrument.

[2] = DVS (Dynamic Vapour Sorption) experiments, hygroscopicity; assay type: physicochemical
Description: As shown in Example 1 of the present invention, DVS (Dynamic Vapour Sorption) experiments were performed at 25° C. and at 40° C. […] In contrast hereto, as shown in Example 2, Nalmefene hydrochloride as monohydrate absorbed about 2.5% water when exposed to 95% RH and 40° C.
DVS experiments were performed at 25° C. and at 40° C. The dihydrate is retained at relative humidity of 10-95%. Adsorption to the surface at high relative humidity is less than 0.2%. Desorption of the crystal water occurs slowly under 10% RH.
DVS experiments were performed at 25° C. and at 40° C. The shape of the curves was the same, only the curve at 40° C. is shown (FIG. 5).
Most of the water of hydration (4%) was absorbed at 10% RH. […] The amounts here are given as % weigh increase relative to dry, thus the weight gain corresponding to monohydrate was 4.8% and a 1.5 hydrate corresponds to a gain of 7.2%.

[3] = Solubility in aqueous solutions; assay type: physicochemical
From the text: To recover any unused Nalmefene hydrochloride from the methods I or II, outlined above, a method for the recovery has been developed that comprises • (i) optionally, distillation of mother liquors obtained from method (I) or (II) • (ii) basification of the mother liquors obtained in step (i), or from the methods (I) or (II), • (iii) extracting the mixture with a suitable organic solvent, • (iv) adding hydrogen chloride, and • (v) isolating the formed solid

[4] = Brittain, Analytical Profiles of Drug Substances and Excipients (1996); cited from earlier work

## C=C1CC[C@@]2(O)[C@H]3Cc4ccc(O)c5c4[C@@]2(CCN3CC2CC2)[C@H]1O5 [Nalmefene hydrochloride dihydrate]
[1]
  particle size D10: 14 μm
  particle size D50: 122 μm
  particle size D90: 287 μm
[2]; DVS at 25° C. and 40° C.
  relative humidity at which the hydrate is retained: 10-95%
  relative humidity under which desorption of the crystal water occurs slowly: under 10 % RH
[2]; DVS at 25° C. and 40° C., high relative humidity
  adsorption to the surface at high relative humidity: less than 0.2%
[2]; DVS at 25° C. and at 40° C., 95% RH
  water absorbed at 95% RH: no water was absorbed
[2]; DVS-curve, crystal lattice retained
  rehydration after drying at 0% RH: complete rehydration
[2]; hydrochloride dihydrate
  hygroscopicity (in words): non-hygroscopic

## C=C1CC[C@@]2(O)[C@H]3Cc4ccc(O)c5c4[C@@]2(CCN3CC2CC2)[C@H]1O5 [Nalmefene hydrochloride, 17-(cyclopropylmethyl)-4,5-α-epoxy-6-methylenemorphinan-3,14-diol hydrochloride]
[3]
  solubility in aqueous solutions such as water: highly soluble

## C=C1CC[C@@]2(O)[C@H]3Cc4ccc(O)c5c4[C@@]2(CCN3CC2CC2)[C@H]1O5 [Nalmefene hydrochloride monohydrate]
[4]
  adventitious moisture sorbed: up to 1%
[2]; 95% RH, 40° C.
  water absorbed when exposed to 95% RH and 40° C.: about 2.5%
[2]; DVS, 10% RH
  weight increase relative to dry at 10% RH: 4%
[2]; DVS, 50% RH
  weight increase relative to dry at 50% RH: 4.3%
[2]; DVS, 60% RH
  weight increase relative to dry at 60% RH: 6.9%
[2]; DVS, 95% RH
  weight increase relative to dry at 95% RH: 7.3%
[2]; DVS, Example 2
  RH above which the form changed into a new structure with higher water content: above 50%
[2]; listed as Nalmefene hydrochloride as a monohydrate, hydrochloride monohydrate
  hygroscopicity (in words): hygroscopic
